{
  "source": "paper PMC5597618",
  "about": "“Identification and characterization of the novel reversible and selective cathepsin X inhibitors” (Scientific Reports, 2017)",
  "key": {"[1]": {"target": "T1, Cathepsin B (endopeptidase a.) (Homo sapiens, UniProt P07858)", "T1 construct": "made in house; host or cells: E. coli", "test": "Ki against cathepsin B endopeptidase activity (Z-RR-AMC)", "format": "biochemical", "settings": "SigmaPlot at 3 different substrate concentrations; pH 6.0", "procedure": "(§1) Recombinant or native human cathepsins were used: recombinant cathepsin X and cathepsin S were expressed in Pichia pastoris, recombinant cathepsins B and L in E. coli, [43], native cathepsin H was isolated from human liver. Assay buffers for determining activities of cathepsins X and L consisted of 100 mM sodium acetate buffer, pH 5.5, for cathepsins H, S and B (endopeptidase activity) of 100 mM phosphate buffer pH 6.8, 6.5 and 6.0, respectively and for cathepsin B (exopeptidase activity) of 60 mM acetate buffer pH 5.0. Each assay buffer contained 0.01% Triton X-100 to prevent false positive inhibition due to aggregation of compounds[45], 5 mM cysteine, 1.5 mM EDTA and 0.1% PEG 8000. Enzymes were activated at 37 °C for 5 min before the assays.\n(§2) Ki was determined by measuring the initial rate of hydrolysis at three different substrate concentrations (Supplementary Table S2) in the presence of seven different compound concentrations (0, 20, 40, 60, 80, 100 and 200 μM). 90 μL of the activated cathepsin was added to a black 96-well plate with 5 μL of the substrate and 5 μL of the compound. Formation of the fluorescent degradation product was monitored continuously at 460 nm ± 10 nm with excitation at 380 nm ± 20 nm (for AMC substrates) and, as noted above for Abz substrates, at 37 °C. All measurements were performed twice and in duplicate. The resulting data were analyzed by non-linear regression using the software SigmaPlot®, Enzyme Kinetics Module™ 1.3 and were fitted to the equation v = v max [S]/([S] (1 + [I]/αK i ) + K m (1 + [I]/K i )) (first group of compounds). For Ki determination against cathepsin X for the compounds from the second group, progress curves in the absence and presence of each putative inhibitor were fitted to the reaction mechanism presented in Fig. 3b. In this case the resulting data as well as reactivation curves were fitted to the equation system presented in Fig. 3c using ENZO application. For calculation of kinetic parameters from reaction progress curves the fluorescence coefficient for conversion of arbitrary fluorescence units to concentration was first determined. The fluorescence coefficient was calculated as the slope from the plot of initial substrate concentration vs. height of the plateau of the progress curve after complete hydrolysis of increasing concentrations of substrate, using linear regression.\n(§3) Supplementary Table S2. Substrates used for the various cathepsins and their concentrations […]\n(§4) Enzyme Substrate Concentration (µM) Reference/Company cathepsin X Abz-FEK(Dnp)-OH 3.25, 6.5, 13 Puzer et al.3 cathepsin B - endopept. Z-RR-AMC 60, 180, 360 Bachem cathepsin B - exopept. Abz-GIVRAK(Dnp)-OH 1, 3, 6 Bachem cathepsin S Z-VVR-AMC 0.5, 1, 1.5 Biomol cathepsin L Z-FR-AMC 0.5, 1, 4 Bachem cathepsin H Z-R-AMC 20, 80, 160 Biomol […]"}, "[2]": {"target": "T2, Cathepsin B (exopeptidase a.) (Homo sapiens, UniProt P07858)", "T2 construct": "made in house; host or cells: E. coli", "test": "Ki against cathepsin B exopeptidase activity (Abz-GIVRAK(Dnp)-OH)", "format": "biochemical", "settings": "SigmaPlot at 3 different substrate concentrations; pH 5.0", "procedure": "as §1, §2, §3, §4"}, "Cathepsin L": {"target": "T3, Cathepsin L (Homo sapiens, UniProt P07711)", "T3 construct": "made in house; host or cells: E. coli", "T3 sequence (P07711 114-333)": "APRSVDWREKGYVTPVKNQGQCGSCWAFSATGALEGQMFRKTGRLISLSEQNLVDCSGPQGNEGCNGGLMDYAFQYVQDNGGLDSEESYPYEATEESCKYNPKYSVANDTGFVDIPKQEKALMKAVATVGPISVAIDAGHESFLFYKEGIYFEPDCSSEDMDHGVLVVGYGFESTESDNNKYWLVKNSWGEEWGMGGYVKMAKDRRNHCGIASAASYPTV", "test": "Ki against cathepsin L (Z-FR-AMC)", "format": "biochemical", "settings": "SigmaPlot at 3 different substrate concentrations; pH 5.5", "procedure": "as §1, §2, §3, §4"}, "PC-3 cells": {"tested_on": "PC-3 cells", "test": "Cellular uptake and retention by LC-MS/MS", "format": "in vitro ADME, human", "settings": "50 µM, after 1 hour", "procedure": "Evaluation of cellular uptake and retention of compound 22: sample preparation and LC- […]\nPC-3 cells were treated for 1 hour with compound 22 (50 µM). Cells were washed twice with cold PBS, trypsinized, washed once more and centrifuged. A pellet of cells was resuspended in 200 µL of PBS (or in 200 µL of PBS containing 5µM inhibitor for standard addition) and transferred to 1.5 mL Eppendorf vials prefilled with 0.1 mm and 0.5 mm glass beads (NextAdvance, USA). All cell samples were then homogenized with a BulletBlender (NextAdvance, USA) for 5 min at speed setting »6«. […]\n(2.30;50), (2.50;50), (2.6;5). […] ESI Jetstream parameters were set as follows: drying gas temperature 275 °C, drying gas flow 5 L/min, nebulizer 45 psi, sheath gas temperature 320 °C, sheath gas flow 11 L/min, capillary entrance voltage 4000 V and nozzle voltage 1000 V. Quadrupoles Q1 and Q3 were set at the widest resolution (2.5 amu) and multiple reaction monitoring (MRM) mass transitions used for the quantification of recorded traces are presented in Supplementary Table S4. […]\nPC-3 cell lysate was diluted in cathepsin X assay buffer (1 mg/ml protein concentration). […] After blocking with 5% skimmed milk powder in TBS with 0.05% Tween 20, membrane was incubated with streptavidin-HRP (1:5000; Jackson ImmunoResearch) for 1 hour and proteins were detected with […]"}, "PC-12 cells": {"tested_on": "PC-12 cells", "test": "Determination of F-actin content of cells (phalloidin-TRITC fluorescence microscopy)", "format": "cell-based, rat", "settings": "10 µM, 2 h", "procedure": "For the fluorescence staining of F-actin, PC-12 cells were cultured on glass coverslips coated with poly-L-lysine (4 × 10^4/ml). Next day, cells were treated with compounds (10 µM) in serum-free medium for 2 h. The cells were then fixed in 5% formalin (w/v) in PBS (pH 7.4) for 5 min and permeabilized with 0.1% Triton X-100 in PBS for 3 min. After washing with PBS, cells were incubated with phalloidin-TRITC (500 ng/mL) (Sigma) in 20 mM TrisHCl (pH 7.4) at 37 °C for 30 min. After additional washing with PBS, the Prolong Antifade kit was used for mounting the coverslips on glass slides. Fluorescence microscopy was performed using an Olympus IX 81 motorized inverted microscope."}},
  "data": [
    {"smiles": "CC(C)n1cnnc1SCC(=O)c1ccc2c(c1)OCCO2", "note": "[Compound 22, 1-(2,3-Dihydrobenzo[b][1,4]dioxin-6-yl)-2-((4-isopropyl-4H-1,2,4-triazol-3-yl)thio)ethan-1-one]", "values": [
      {"measurement": "Ki", "setting": "[1]", "value": "310 ± 68.3", "unit": "µM"},
      {"measurement": "Ki", "setting": "[2]", "value": "306 ± 38.1", "unit": "µM"},
      {"measurement": "Ki Cathepsin L", "setting": "Cathepsin L", "value": "n.i."},
      {"measurement": "% of 22 in the cell media", "setting": "PC-3 cells", "value": 84, "unit": "%"},
      {"measurement": "actin polymerization", "setting": "PC-12 cells", "value": "increased actin polymerization"}
    ]}
  ]
}
